Data: ChEMBL document CHEMBL1909281, “FDA-approved drug labeling for the study of drug-induced liver injury” (Drug Discov Today, 2011)

System: Hepatotoxicity
Details: not given

| Compound | LTKB_BD DILI severity score |
| --- | --- |
| CC[C@H](C)C(=O)O[C@H]1C[C@H](O)C=C2C=C[C@H](C)[C@H](CC[C@@H](O)C[C@@H](O)CC(=O)O)[C@H]21 [PRAVASTATIN] | 3 |
| C[C@]12C=CC(=O)C=C1CC[C@@H]1[C@@H]2[C@@H](O)C[C@@]2(C)[C@H]1CC[C@]2(O)C(=O)CO [PREDNISOLONE] | 3 |
| CC(C)NCC(O)COc1cccc2ccccc12 (stereo unspecified) [PROPRANOLOL] | 3 |
| NC(=O)c1cnccn1 [PYRAZINAMIDE] | 3 |
| CNC(=C[N+](=O)[O-])NCCSCc1ccc(CN(C)C)o1 [RANITIDINE] | 5 |
| NC(=O)c1ncn([C@@H]2O[C@H](CO)[C@@H](O)[C@H]2O)n1 [RIBAVIRIN] | 7 |
| CC(=O)S[C@@H]1CC2=CC(=O)CC[C@]2(C)[C@H]2CC[C@@]3(C)[C@@H](CC[C@@]34CCC(=O)O4)[C@H]12 [SPIRONOLACTONE] | 2 |
| C=CC[C@@H]1/C=C(\C)C[C@H](C)C[C@H](OC)[C@H]2O[C@@](O)(C(=O)C(=O)N3CCCC[C@H]3C(=O)O[C@H](/C(C)=C/[C@@H]3CC[C@@H](O)[C@H](OC)C3)[C@H](C)[C@@H](O)CC1=O)[C@H](C)C[C@@H]2OC [TACROLIMUS ANHYDROUS] | 5 |
| CN(C)[C@@H]1C(O)=C(C(N)=O)C(=O)[C@@]2(O)C(O)=C3C(=O)c4c(O)cccc4[C@@](C)(O)[C@H]3C[C@@H]12 [TETRACYCLINE] | 2 |
| CN(C)CCOc1ccc(/C(=C(/CCCl)c2ccccc2)c2ccccc2)cc1 [TOREMIFENE] | 3 |
| O=c1n(CCCN2CCN(c3cccc(Cl)c3)CC2)nc2ccccn12 [TRAZODONE] | 5 |
| CN1CCN(CCCN2c3ccccc3Sc3ccc(C(F)(F)F)cc32)CC1 [TRIFLUOPERAZINE] | 2 |
| COc1ccc(C(CN(C)C)C2(O)CCCCC2)cc1 (stereo unspecified) [VENLAFAXINE] | 7 |
| CC(=O)CC(c1ccccc1)c1c(O)c2ccccc2oc1=O (stereo unspecified) [WARFARIN] | 5 |
| CARBOPLATIN | 3 |

Same assay, conditions: Liver

| Compound | LTKB_BD DILI severity score |
| --- | --- |
| CN[C@H]1CC[C@@H](c2ccc(Cl)c(Cl)c2)c2ccccc21 [SERTRALINE] | 3 |

System: Hepatotoxicity
Experiment: FDA Liver Toxicity Knowledge Base Benchmark Dataset (LTKB-BD) drugs of most concern for DILI
Details: not given

| Compound | LTKB_BD DILI severity score |
| --- | --- |
| CC1=C(CC(=O)O)c2cc(F)ccc2/C1=C\c1ccc([S+](C)[O-])cc1 (stereo unspecified) | 8 |
| CCC[C@@]1(CCc2ccccc2)CC(O)=C([C@H](CC)c2cccc(NS(=O)(=O)c3ccc(C(F)(F)F)cn3)c2)C(=O)O1 | 8 |
| CC(C)(C)NC(=O)[C@@H]1CN(Cc2cccnc2)CCN1C[C@@H](O)C[C@@H](Cc1ccccc1)C(=O)N[C@H]1c2ccccc2C[C@H]1O.O | 8 |
| COc1ccc(CCN(C)CCCC(C#N)(c2ccc(OC)c(OC)c2)C(C)C)cc1OC (stereo unspecified) | 4 |
| Nc1nc(NC2CC2)c2ncn([C@H]3C=C[C@@H](CO)C3)c2n1 [ABACAVIR] | 8 |
| C[C@H]1O[C@H](O[C@H]2[C@H](O)[C@@H](O)[C@@H](O[C@H]3[C@H](O)[C@@H](O)C(O)O[C@@H]3CO)O[C@@H]2CO)[C@H](O)[C@@H](O)[C@@H]1N[C@H]1C=C(CO)[C@@H](O)[C@H](O)[C@H]1O (stereo partly specified) [ACARBOSE] | 5 |
| COc1cc(C)c(/C=C/C(C)=C/C=C/C(C)=C/C(=O)O)c(C)c1C [ACITRETIN] | 5 |
| COC(c1ccccc1)(c1ccccc1)[C@H](Oc1nc(C)cc(C)n1)C(=O)O [AMBRISENTAN] | 5 |
| Nc1ccc(C(=O)O)c(O)c1 [AMINOSALICYLIC ACID] | 5 |
| CCCCc1oc2ccccc2c1C(=O)c1cc(I)c(OCCN(CC)CC)c(I)c1 [AMIODARONE] | 8 |
| CC(O)(CS(=O)(=O)c1ccc(F)cc1)C(=O)Nc1ccc(C#N)c(C(F)(F)F)c1 (stereo unspecified) [BICALUTAMIDE] | 8 |
| COc1ccccc1Oc1c(NS(=O)(=O)c2ccc(C(C)(C)C)cc2)nc(-c2ncccn2)nc1OCCO [BOSENTAN] | 7 |
| CS(=O)(=O)OCCCCOS(C)(=O)=O [BUSULFAN] | 8 |
| NC(=O)N1c2ccccc2C=Cc2ccccc21 [CARBAMAZEPINE] | 7 |
| C[C@@](Cc1ccc(O)c(O)c1)(NN)C(=O)O.O [CARBIDOPA] | 4 |
| O=C(O)c1cn(C2CC2)c2cc(N3CCNCC3)c(F)cc2c1=O [CIPROFLOXACIN] | 7 |
| CN(C)/N=N/c1[nH]cnc1C(N)=O [DACARBAZINE] | 6 |
| C#C[C@]1(O)CC[C@H]2[C@@H]3CCC4=Cc5oncc5C[C@]4(C)[C@H]3CC[C@@]21C [DANAZOL] | 8 |
| O=C1CN(/N=C/c2ccc(-c3ccc([N+](=O)[O-])cc3)o2)C(O)=N1 [DANTROLENE] | 8 |
| O=C(O)c1ccc(-n2nc(-c3ccccc3O)nc2-c2ccccc2O)cc1 [DEFERASIROX] | 7 |
| O=c1[nH]cnc2c1ncn2[C@H]1CC[C@@H](CO)O1 [DIDANOSINE] | 8 |
| CC(=O)O[C@@]12CO[C@@H]1C[C@H](O)[C@@]1(C)C(=O)[C@H](O)C3=C(C)[C@@H](OC(=O)[C@H](O)[C@@H](NC(=O)OC(C)(C)C)c4ccccc4)C[C@@](O)([C@@H](OC(=O)c4ccccc4)[C@H]21)C3(C)C.O.O.O [DOCETAXEL] | 8 |
| CC[C@H]1OC(=O)[C@H](C)[C@@H](O[C@H]2C[C@@](C)(OC)[C@@H](O)[C@H](C)O2)[C@H](C)[C@@H](O[C@@H]2O[C@H](C)C[C@H](N(C)C)[C@H]2O)[C@](C)(O)C[C@@H](C)C(=O)[C@H](C)[C@@H](O)[C@]1(C)O [ERYTHROMYCIN] | 5 |
| CC[C@@H](CO)NCCN[C@@H](CC)CO [ETHAMBUTOL] | 8 |
| CCc1cccc2c3c([nH]c12)C(CC)(CC(=O)O)OCC3 (stereo unspecified) [ETODOLAC] | 8 |
| NC(=O)OCC(COC(N)=O)c1ccccc1 [FELBAMATE] | 7 |

| Compound | LTKB_BD DILI severity score |
| --- | --- |
| CC(C(=O)O)c1cccc(Oc2ccccc2)c1 (stereo unspecified) [FENOPROFEN] | 8 |
| CC(C)C(=O)Nc1ccc([N+](=O)[O-])c(C(F)(F)F)c1 [FLUTAMIDE] | 8 |
| NC(=O)NO [HYDROXYUREA] | 8 |
| Cc1cc(C(=O)NNCc2ccccc2)no1 [ISOCARBOXAZID] | 5 |
| NNC(=O)c1ccncc1 [ISONIAZID] | 8 |
| CC(=O)N1CCN(c2ccc(OCC3COC(Cn4ccnc4)(c4ccc(Cl)cc4Cl)O3)cc2)CC1 (stereo unspecified) [KETOCONAZOLE] | 8 |
| CC(CCc1ccccc1)NCC(O)c1ccc(O)c(C(N)=O)c1 (stereo unspecified) [LABETALOL] | 8 |
| Nc1ccn([C@@H]2CS[C@H](CO)O2)c(=O)n1 [LAMIVUDINE] | 8 |
| CS(=O)(=O)CCNCc1ccc(-c2ccc3ncnc(Nc4ccc(OCc5cccc(F)c5)c(Cl)c4)c3c2)o1 [LAPATINIB] | 8 |
| Cc1oncc1C(=O)Nc1ccc(C(F)(F)F)cc1 [LEFLUNOMIDE] | 8 |
| Cc1nnc(C(C)C)n1[C@@H]1C[C@H]2CC[C@@H](C1)N2CC[C@H](NC(=O)C1CCC(F)(F)CC1)c1ccccc1 [MARAVIROC] | 3 |
| CN(Cc1cnc2nc(N)nc(N)c2n1)c1ccc(C(=O)N[C@@H](CCC(=O)O)C(=O)O)cc1 [METHOTREXATE] | 3 |
| C[C@](N)(Cc1ccc(O)c(O)c1)C(=O)O [METHYLDOPA] | 8 |
| O=C1CC[C@@]2(O)[C@H]3Cc4ccc(O)c5c4[C@@]2(CCN3CC2CC2)[C@H]1O5 [NALTREXONE] | 3 |
| CCc1nn(CCCN2CCN(c3cccc(Cl)c3)CC2)c(=O)n1CCOc1ccccc1 [NEFAZODONE] | 8 |
| Cc1ccnc2c1NC(=O)c1cccnc1N2C1CC1 [NEVIRAPINE] | 8 |
| CCCCCCCCCCC[C@@H](C[C@@H]1OC(=O)[C@H]1CCCCCC)OC(=O)[C@H](CC(C)C)NC=O [ORLISTAT] | 8 |
| C[C@]12COC(=O)C[C@@H]1CC[C@@H]1[C@@H]2CC[C@@]2(C)[C@H]1CC[C@]2(C)O [OXANDROLONE] | 8 |
| C[C@]12C/C(=C/O)C(=O)C[C@@H]1CC[C@@H]1[C@@H]2CC[C@@]2(C)[C@H]1CC[C@]2(C)O [OXYMETHOLONE] | 8 |
| CO[C@H]1/C=C/O[C@@]2(C)Oc3c(C)c(O)c4c(O)c(c(/C=N/N5CCN(C)CC5)c(O)c4c3C2=O)NC(=O)/C(C)=C\C=C\[C@H](C)[C@H](O)[C@@H](C)[C@@H](O)[C@@H](C)[C@H](OC(C)=O)[C@@H]1C [RIFAMPIN] | 8 |
| CC(C)c1nc(CN(C)C(=O)N[C@H](C(=O)N[C@@H](Cc2ccccc2)C[C@H](O)[C@H](Cc2ccccc2)NC(=O)OCc2cncs2)C(C)C)cs1 [RITONAVIR] | 5 |
| Cc1cn([C@H]2C=C[C@@H](CO)O2)c(=O)[nH]c1=O [STAVUDINE] | 8 |
| CN(N=O)C(=O)N[C@@H](C=O)[C@@H](O)[C@H](O)[C@H](O)CO [STREPTOZOCIN] | 3 |
| Cc1cc(NS(=O)(=O)c2ccc(N)cc2)no1 [SULFAMETHOXAZOLE] | 7 |
| CCN(CC)CCNC(=O)c1c(C)[nH]c(/C=C2\C(=O)Nc3ccc(F)cc32)c1C [SUNITINIB] | 8 |

Same assay, conditions: Liver

| Compound | LTKB_BD DILI severity score |
| --- | --- |
| Nc1ccn([C@@H]2O[C@H](CO)[C@@H](O)[C@@H]2O)c(=O)n1 [CYTARABINE] | 3 |
| O=C(O)Cc1ccccc1Nc1c(Cl)cccc1Cl [DICLOFENAC] | 7 |
| CC1=NN(c2ccc(C)c(C)c2)C(=O)/C1=N\Nc1cccc(-c2cccc(C(=O)O)c2)c1O [ELTROMBOPAG] | 6 |
| OC(Cn1cncn1)(Cn1cncn1)c1ccc(F)cc1F [FLUCONAZOLE] | 8 |
| Sc1ncnc2nc[nH]c12 [MERCAPTOPURINE ANHYDROUS] | 8 |
| O=C1CN(/N=C/c2ccc([N+](=O)[O-])o2)C(=O)N1 [NITROFURANTOIN] | 8 |
| CNCCC=C1c2ccccc2CCc2ccccc21 [NORTRIPTYLINE] | 8 |
| CCCc1cc(=O)[nH]c(=S)[nH]1 [PROPYLTHIOURACIL] | 8 |
| Nc1c2c(nc3ccccc13)CCCC2 [TACRINE] | 7 |
